Article PMC6066978, “Chronic Intermittent Hypoxia-Induced Vascular Dysfunction in Rats is Reverted by N-Acetylcysteine Supplementation and Arginase Inhibition” (Frontiers in Physiology, 2018)

Target: arginase
Experiment: arginase activity (urea production, ISPF colorimetric) in human placental homogenate
Assay type: biochemical

## N[C@@H](CCCCB(O)O)C(=O)O [ABH, 2(S)-amino-6-boronohexanoic acid]
  Ki: 4.78 ± 1.76 µM
